Assay results from the CheMixHub ionic liquid set.
± gives the uncertainty stated by the source.

Assay: xn = mol fraction of the nth substance listed

O=S(=O)([N-]S(=O)(=O)C(F)(F)F)C(F)(F)F.[Li+] + CC[n+]1ccn(C)c1.O=S(=O)([O-])C(F)(F)F + O
Conditions	electrical conductivity [S/m]	viscosity [mPa·s]
283 K, 101 kPa, x1 = 0.2649, x2 = 0.2649	0.36 ± 0.01	96.6 ± 2.2
283 K, 101 kPa, x1 = 0.4189, x2 = 0.2649	0.056 ± 0.001	–
283 K, 101 kPa, x1 = 0.5195, x2 = 0.3509	0.014 ± 0.001	–
293 K, 101 kPa, x1 = 0.2649, x2 = 0.2649	0.54 ± 0.01	60.2 ± 1.4
293 K, 101 kPa, x1 = 0.4189, x2 = 0.2649	0.1 ± 0.01	410 ± 14
293 K, 101 kPa, x1 = 0.5195, x2 = 0.3509	0.03 ± 0.001	–
293.15 K, 100 kPa, x1 = 0.2745, x2 = 0.3509	–	69.3 ± 7
293.15 K, 100 kPa, x1 = 0.3106, x2 = 0.3509	–	87 ± 8.9
293.15 K, 100 kPa, x1 = 0.3509, x2 = 0.3509	–	129 ± 13
293.15 K, 100 kPa, x1 = 0.3868, x2 = 0.3509	–	190 ± 21
293.15 K, 100 kPa, x1 = 0.4189, x2 = 0.3509	–	292 ± 33
293.15 K, 100 kPa, x1 = 0.4478, x2 = 0.3509	–	428 ± 51
293.15 K, 100 kPa, x1 = 0.474, x2 = 0.3509	–	611 ± 77
293.15 K, 100 kPa, x1 = 0.4978, x2 = 0.3509	–	880 ± 120
293.15 K, 100 kPa, x1 = 0.5195, x2 = 0.3509	–	1587 ± 230
298.1 K, 101 kPa, x1 = 0.2649, x2 = 0.2649	0.65 ± 0.01	48.9 ± 1.2
298.1 K, 101 kPa, x1 = 0.4189, x2 = 0.2649	0.14 ± 0.01	302 ± 9
298.1 K, 101 kPa, x1 = 0.5195, x2 = 0.3509	0.042 ± 0.001	1125 ± 51
298.15 K, 100 kPa, x1 = 0.2745, x2 = 0.3509	–	55 ± 5.5
298.15 K, 100 kPa, x1 = 0.3106, x2 = 0.3509	–	73.5 ± 7.4
298.15 K, 100 kPa, x1 = 0.3509, x2 = 0.3509	–	102 ± 11
298.15 K, 100 kPa, x1 = 0.3868, x2 = 0.3509	–	147 ± 16
298.15 K, 100 kPa, x1 = 0.4189, x2 = 0.3509	–	219 ± 24
298.15 K, 100 kPa, x1 = 0.4478, x2 = 0.3509	–	316 ± 36
298.15 K, 100 kPa, x1 = 0.474, x2 = 0.3509	–	439 ± 53
298.15 K, 100 kPa, x1 = 0.4978, x2 = 0.3509	–	618 ± 79
298.15 K, 100 kPa, x1 = 0.5195, x2 = 0.3509	–	1082 ± 150
303 K, 101 kPa, x1 = 0.2649, x2 = 0.2649	0.77 ± 0.02	40.2 ± 1
303 K, 101 kPa, x1 = 0.4189, x2 = 0.2649	0.17 ± 0.01	227 ± 6
303 K, 101 kPa, x1 = 0.5195, x2 = 0.3509	0.057 ± 0.001	789 ± 33
303.15 K, 100 kPa, x1 = 0.2745, x2 = 0.3509	–	44.4 ± 4.5
303.15 K, 100 kPa, x1 = 0.3106, x2 = 0.3509	–	59.3 ± 6
303.15 K, 100 kPa, x1 = 0.3509, x2 = 0.3509	–	81.4 ± 8.3
303.15 K, 100 kPa, x1 = 0.3868, x2 = 0.3509	–	115 ± 12
303.15 K, 100 kPa, x1 = 0.4189, x2 = 0.3509	–	166 ± 18
303.15 K, 100 kPa, x1 = 0.4478, x2 = 0.3509	–	238 ± 27
303.15 K, 100 kPa, x1 = 0.474, x2 = 0.3509	–	326 ± 38
303.15 K, 100 kPa, x1 = 0.4978, x2 = 0.3509	–	452 ± 55
303.15 K, 100 kPa, x1 = 0.5195, x2 = 0.3509	–	770 ± 100
313 K, 101 kPa, x1 = 0.2649, x2 = 0.2649	1.05 ± 0.02	28 ± 0.7
313 K, 101 kPa, x1 = 0.4189, x2 = 0.2649	0.27 ± 0.01	138 ± 3
313 K, 101 kPa, x1 = 0.5195, x2 = 0.3509	0.1 ± 0.01	418 ± 15
313.15 K, 100 kPa, x1 = 0.2745, x2 = 0.3509	–	30.6 ± 3.1
313.15 K, 100 kPa, x1 = 0.3106, x2 = 0.3509	–	40.1 ± 4
313.15 K, 100 kPa, x1 = 0.3509, x2 = 0.3509	–	54.2 ± 5.4
313.15 K, 100 kPa, x1 = 0.3868, x2 = 0.3509	–	75.3 ± 7.6
313.15 K, 100 kPa, x1 = 0.4189, x2 = 0.3509	–	104 ± 11
313.15 K, 100 kPa, x1 = 0.4478, x2 = 0.3509	–	144 ± 15
313.15 K, 100 kPa, x1 = 0.474, x2 = 0.3509	–	191 ± 21
313.15 K, 100 kPa, x1 = 0.4978, x2 = 0.3509	–	255 ± 29
313.15 K, 100 kPa, x1 = 0.5195, x2 = 0.3509	–	413 ± 50
323 K, 101 kPa, x1 = 0.2649, x2 = 0.2649	1.38 ± 0.03	20.4 ± 0.5
323 K, 101 kPa, x1 = 0.4189, x2 = 0.2649	0.4 ± 0.01	87.4 ± 1.9
323 K, 101 kPa, x1 = 0.5195, x2 = 0.3509	0.16 ± 0.01	243 ± 7
323.15 K, 100 kPa, x1 = 0.2745, x2 = 0.3509	–	22.1 ± 2.2
323.15 K, 100 kPa, x1 = 0.3106, x2 = 0.3509	–	28.7 ± 2.9
323.15 K, 100 kPa, x1 = 0.3509, x2 = 0.3509	–	37.6 ± 3.8
323.15 K, 100 kPa, x1 = 0.3868, x2 = 0.3509	–	49.3 ± 5
323.15 K, 100 kPa, x1 = 0.4189, x2 = 0.3509	–	63.9 ± 6.5
323.15 K, 100 kPa, x1 = 0.4478, x2 = 0.3509	–	92.9 ± 9.5
323.15 K, 100 kPa, x1 = 0.474, x2 = 0.3509	–	120 ± 13
323.15 K, 100 kPa, x1 = 0.4978, x2 = 0.3509	–	155 ± 17
323.15 K, 100 kPa, x1 = 0.5195, x2 = 0.3509	–	239 ± 27
333 K, 101 kPa, x1 = 0.2649, x2 = 0.2649	1.76 ± 0.04	15.3 ± 0.5
333 K, 101 kPa, x1 = 0.4189, x2 = 0.2649	0.56 ± 0.01	58 ± 1.2
333 K, 101 kPa, x1 = 0.5195, x2 = 0.3509	0.24 ± 0.01	149 ± 4
333.15 K, 100 kPa, x1 = 0.2745, x2 = 0.3509	–	16.5 ± 1.7
333.15 K, 100 kPa, x1 = 0.3106, x2 = 0.3509	–	21.2 ± 2.1
333.15 K, 100 kPa, x1 = 0.3509, x2 = 0.3509	–	27.2 ± 2.7
333.15 K, 100 kPa, x1 = 0.3868, x2 = 0.3509	–	34.1 ± 3.4
333.15 K, 100 kPa, x1 = 0.4189, x2 = 0.3509	–	44 ± 4.4
333.15 K, 100 kPa, x1 = 0.4478, x2 = 0.3509	–	56.7 ± 5.7
333.15 K, 100 kPa, x1 = 0.474, x2 = 0.3509	–	80 ± 8.1
333.15 K, 100 kPa, x1 = 0.4978, x2 = 0.3509	–	102 ± 10
333.15 K, 100 kPa, x1 = 0.5195, x2 = 0.3509	–	150 ± 16
343.15 K, 100 kPa, x1 = 0.2745, x2 = 0.3509	–	12.7 ± 1.3
343.15 K, 100 kPa, x1 = 0.3106, x2 = 0.3509	–	16.1 ± 1.6
343.15 K, 100 kPa, x1 = 0.3509, x2 = 0.3509	–	19.6 ± 2
343.15 K, 100 kPa, x1 = 0.3868, x2 = 0.3509	–	25.1 ± 2.5
343.15 K, 100 kPa, x1 = 0.4189, x2 = 0.3509	–	31.6 ± 3.2
343.15 K, 100 kPa, x1 = 0.4478, x2 = 0.3509	–	39.9 ± 4
343.15 K, 100 kPa, x1 = 0.474, x2 = 0.3509	–	51.1 ± 5.1
343.15 K, 100 kPa, x1 = 0.4978, x2 = 0.3509	–	64.1 ± 6.5
343.15 K, 100 kPa, x1 = 0.5195, x2 = 0.3509	–	91.5 ± 9.4
353.15 K, 100 kPa, x1 = 0.2745, x2 = 0.3509	–	10 ± 1
353.15 K, 100 kPa, x1 = 0.3106, x2 = 0.3509	–	12.6 ± 1.3
353.15 K, 100 kPa, x1 = 0.3509, x2 = 0.3509	–	15.1 ± 1.5
353.15 K, 100 kPa, x1 = 0.3868, x2 = 0.3509	–	19 ± 1.9
353.15 K, 100 kPa, x1 = 0.4189, x2 = 0.3509	–	23.6 ± 2.4
353.15 K, 100 kPa, x1 = 0.4478, x2 = 0.3509	–	29.2 ± 2.9
353.15 K, 100 kPa, x1 = 0.474, x2 = 0.3509	–	36.7 ± 3.7
353.15 K, 100 kPa, x1 = 0.4978, x2 = 0.3509	–	45.9 ± 4.6
353.15 K, 100 kPa, x1 = 0.5195, x2 = 0.3509	–	58 ± 5.8
363.15 K, 100 kPa, x1 = 0.2745, x2 = 0.3509	–	7.98 ± 0.8
363.15 K, 100 kPa, x1 = 0.3106, x2 = 0.3509	–	10 ± 1
363.15 K, 100 kPa, x1 = 0.3509, x2 = 0.3509	–	11.9 ± 1.2
363.15 K, 100 kPa, x1 = 0.3868, x2 = 0.3509	–	14.8 ± 1.5
363.15 K, 100 kPa, x1 = 0.4189, x2 = 0.3509	–	18.1 ± 1.8
363.15 K, 100 kPa, x1 = 0.4478, x2 = 0.3509	–	22.1 ± 2.2
363.15 K, 100 kPa, x1 = 0.474, x2 = 0.3509	–	27.3 ± 2.7
363.15 K, 100 kPa, x1 = 0.4978, x2 = 0.3509	–	33.8 ± 3.4
363.15 K, 100 kPa, x1 = 0.5195, x2 = 0.3509	–	41.6 ± 4.2
